How the values were obtained:
TPα^WT = target: T1, TPα^WT (Homo sapiens, UniProt P21731); assay: [3H]SQ29,548 radioligand binding, Scatchard analysis, HEK.TPα^WT
T1 construct: expressed in transfected cells
Method: Cells were harvested by centrifugation at 500×g at 4 °C for 5 min and washed three times with ice-cold Ca^2+/Mg^2+-free phosphate-buffered saline (PBS). TP radioligand binding assays were carried out at 30 °C for 30 min in 100 μl reactions in the presence of 0–40 nM [^3H] […] Protein determinations were carried out using the Bradford assay.
Radioligand binding and Scatchard analysis data were analysed using GraphPad Prisim V4.0 programme (GraphPad Software Inc., San Diego CA, USA). Statistical analyses were carried out using the unpaired Student's t test using the Statworks Analysis Package. p-values ≤ 0.01 indicated statistically significant differences.

TPα^S331,T337A = target: T2, TPα^S331,T337A (Homo sapiens, UniProt P21731, S331A/T337A); assay: Intracellular calcium mobilization, HEK.TPα^S331,T337A cells; type: cell-based; details: for Δ[Ca2+]i, U46619-induced: HEK.TPα^S331,T337A
T2 construct: expressed in transfected cells
T2 sequence (P21731 1-343 S331A/T337A): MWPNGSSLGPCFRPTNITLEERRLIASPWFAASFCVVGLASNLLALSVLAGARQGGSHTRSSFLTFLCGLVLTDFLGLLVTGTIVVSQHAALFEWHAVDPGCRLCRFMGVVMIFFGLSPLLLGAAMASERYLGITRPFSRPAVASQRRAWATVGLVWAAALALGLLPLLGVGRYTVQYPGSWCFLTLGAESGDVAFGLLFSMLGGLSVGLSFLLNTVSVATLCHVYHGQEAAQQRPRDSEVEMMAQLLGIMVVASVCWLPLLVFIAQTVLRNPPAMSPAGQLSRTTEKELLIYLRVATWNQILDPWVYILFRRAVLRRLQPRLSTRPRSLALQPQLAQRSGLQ
Method: Measurement of intracellular calcium mobilization ([Ca^2+]i) in FURA2/AM preloaded HEK 293 cell lines (2 × 10^6 cells/dish), each transiently co-transfected with pADVA (10 μg), and pCMV:Gαq (25 μg), was carried out as previously described. To investigate the effect of GRK2/βARK1 on TP-mediated [Ca^2+]i mobilization, HEK.TPα or HEK.TPβ cells (2 × 10^6 cells/dish) were co-transfected with pADVA (10 μg), pCMV:Gαq (25 μg) along with pRK5:βARK1^495–689 (25 μg), encoding a dominant negative form of GRK2/βARK1[39]. Approximately 48 h post-transfection, cells were harvested by scraping, washed twice in ice-cold PBS and resuspended in HBSSHB (modified Ca^2+/Mg^2+-free Hank's buffered salt solution, containing […], pH 7.67, 0.1% bovine serum albumin (BSA)) buffer at 10^7 cells/ml and incubated in the dark with 5 μM FURA2/AM for 45 min at 37 °C. […] For each measurement of [Ca^2+]i mobilization, aliquots of cells were diluted to 0.825 × 10^6 cells/ml in HBSSHB, 1 mM CaCl2 and FURA2 fluorescence was recorded (2 ml aliquots of cells) at 37^ °C with gentle stirring with a Perkin Elmer-Cetus LS50-B spectrofluorometer at excitation wavelengths of 340 nm and 380 nm and emission wavelength of 510 nm, respectively.
Cells were stimulated with the TP agonist U46619 (1 μM) and changes in [Ca^2+]i mobilization were monitored as a function of time. To assess agonist-mediated homologous desensitization, cells (0.825 × 10^6 cells/ml; 2 ml per assay) were stimulated with 1 μM U46619 (Primary stimulation) or, as a control, with the vehicle for 4 min; thereafter, cells were collected by centrifugation (900×g, 5 min); were washed twice in 2 ml HBSSHB, 1 mM CaCl2; and finally resuspended in 2 ml HBSSHB,1 mM CaCl2 and were left to recover over various time intervals (ranging from 0 to 60 min); thereafter, cells re-stimulated with 1 μM U46619 (Secondary stimulation) and changes in [Ca^2+]i mobilization were monitored as a function of time. […]

T1 sequence (P21731 whole entry): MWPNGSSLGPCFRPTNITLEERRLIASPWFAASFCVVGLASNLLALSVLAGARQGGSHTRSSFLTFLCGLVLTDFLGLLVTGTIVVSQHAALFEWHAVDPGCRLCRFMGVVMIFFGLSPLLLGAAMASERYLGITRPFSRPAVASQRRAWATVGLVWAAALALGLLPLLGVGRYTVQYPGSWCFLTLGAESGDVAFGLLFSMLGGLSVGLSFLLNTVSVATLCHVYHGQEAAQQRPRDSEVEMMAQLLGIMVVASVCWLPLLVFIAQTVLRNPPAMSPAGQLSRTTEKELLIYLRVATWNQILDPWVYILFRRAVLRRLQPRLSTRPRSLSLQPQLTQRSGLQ

| SMILES | Bmax (pmol/mg protein ± S.E.M.) (TPα^WT) [pmol/mg protein] | Δ[Ca2+]i, U46619-induced (TPα^S331,T337A; primary 1 μM U46619 4 min) [nM] | Δ[Ca2+]i, U46619-induced (TPα^S331,T337A; secondary 1 μM U46619 at 15 min) [nM] | secondary U46619 [Ca2+]i response relative to primary response (TPα^S331,T337A; TPα^S331,T337A) [%] |
| --- | --- | --- | --- | --- |
| O=C(O)CCC/C=C\C[C@@H]1[C@H](CNNC(=O)Nc2ccccc2)[C@H]2CC[C@@H]1O2 [SQ29,548] | 4.52 ± 0.05 | – | – | – |
| CCCCC[C@H](O)/C=C/[C@@H]1[C@@H](C/C=C\CCCC(=O)O)[C@H]2CO[C@@H]1C2 [U46619] | – | 181 ± 6.5 | 60 ± 7.1 | 33 |
